According to ChEMBL document CHEMBL1201862, “PubChem BioAssay data set” (2004):
Active and inactive are the calls of the source.

Columns and labels:
[1] = target: T1, Neuropeptides B/W receptor type 1 (Homo sapiens, UniProt P48145); assay: GPR7 antagonist potency, late-stage follow-up, cell-based, fluorescence, dose response, set 5 (AID 588566); assay type: functional
T1 sequence (P48145 whole entry): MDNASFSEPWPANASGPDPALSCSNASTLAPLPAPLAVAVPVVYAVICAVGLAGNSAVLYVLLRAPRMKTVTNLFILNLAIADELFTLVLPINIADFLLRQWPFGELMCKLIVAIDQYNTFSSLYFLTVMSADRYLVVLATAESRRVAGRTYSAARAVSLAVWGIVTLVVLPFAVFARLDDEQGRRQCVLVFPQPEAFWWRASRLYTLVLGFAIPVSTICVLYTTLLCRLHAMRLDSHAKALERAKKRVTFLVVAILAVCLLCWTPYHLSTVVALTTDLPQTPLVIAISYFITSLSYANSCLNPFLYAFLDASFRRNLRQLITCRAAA

[2] = target: Melanin-concentrating hormone receptor 1 (Homo sapiens, UniProt Q99705); assay: Late-stage fluorescence-based counterscreen for antagonists of the G-protein coupled receptor 7 (GPR7): cell-based dose response assay to identify antagonists of the melanin-concentrating hormone receptor 1 (MCHR1) Set 5.; assay type: functional
[3] = target: Benomyl/methotrexate resistance protein (Candida albicans, UniProt P28873); assay: CaMdr1 efflux pump inhibitor potency, dose response, singleplex, Cherry Pick1 hits (AID 588608); assay type: functional
[4] = target: T2, Low molecular weight phosphotyrosine protein phosphatase (Homo sapiens, UniProt P24666); assay type: functional; conditions: read-out: IC50_Mean
T2 sequence (P24666 whole entry): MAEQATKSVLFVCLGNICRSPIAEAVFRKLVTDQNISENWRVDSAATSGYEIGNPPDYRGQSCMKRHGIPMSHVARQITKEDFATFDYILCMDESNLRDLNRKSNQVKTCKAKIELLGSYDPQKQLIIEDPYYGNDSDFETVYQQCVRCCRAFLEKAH

[5] = target: T2, Low molecular weight phosphotyrosine protein phosphatase; assay type: functional; conditions: read-out: IC50_Mean; remark: listed apart in the source
[6] = target: T3, Tyrosine-protein phosphatase non-receptor type 22 (Homo sapiens, UniProt Q9Y2R2); assay: LYP phosphatase inhibition for selectivity, dose response, selectivity assay for LMPTP inhibitor project, biochemical, fluorescence, LYP catalytic domain (AID 652006); assay type: functional; conditions: read-out: IC50_Mean
T3 sequence (Q9Y2R2 whole entry): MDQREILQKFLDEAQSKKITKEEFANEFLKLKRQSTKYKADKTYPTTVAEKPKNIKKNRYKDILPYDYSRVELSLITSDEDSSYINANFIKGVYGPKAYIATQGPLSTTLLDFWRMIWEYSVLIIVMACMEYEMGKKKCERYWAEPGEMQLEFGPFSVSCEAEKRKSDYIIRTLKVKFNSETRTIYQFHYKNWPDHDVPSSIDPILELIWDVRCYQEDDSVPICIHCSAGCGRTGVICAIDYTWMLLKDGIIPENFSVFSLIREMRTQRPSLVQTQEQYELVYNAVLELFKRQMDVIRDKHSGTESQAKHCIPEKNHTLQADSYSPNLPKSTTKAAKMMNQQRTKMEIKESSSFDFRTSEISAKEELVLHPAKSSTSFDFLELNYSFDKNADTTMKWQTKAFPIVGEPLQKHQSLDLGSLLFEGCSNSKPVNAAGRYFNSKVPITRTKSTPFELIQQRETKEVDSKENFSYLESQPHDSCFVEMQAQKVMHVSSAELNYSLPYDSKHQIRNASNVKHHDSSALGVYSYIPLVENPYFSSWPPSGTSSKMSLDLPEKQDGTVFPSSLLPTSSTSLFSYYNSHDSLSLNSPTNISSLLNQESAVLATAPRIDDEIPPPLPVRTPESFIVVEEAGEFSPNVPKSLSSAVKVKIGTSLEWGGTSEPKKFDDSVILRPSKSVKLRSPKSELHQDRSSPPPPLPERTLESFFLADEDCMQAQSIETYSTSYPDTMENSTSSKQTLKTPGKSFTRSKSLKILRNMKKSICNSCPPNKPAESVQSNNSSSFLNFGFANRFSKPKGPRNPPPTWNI

[7] = test system: Streptococcus sp. 'group A'; assay: growth inhibition of control SK(-) GAS strain, dose response, counter-screen for streptokinase expression inhibitor project, luminescence, kanamycin, BacTiterGlo, confirmation (AID 1900); assay type: functional, organism-based
Streptokinase A = target: T4, Streptokinase A (Streptococcus pyogenes serotype M1, UniProt P10520); assay: S. pyogenes streptokinase expression inhibitors, potency, dose response, plasminogen activation absorbance, OD405 (AID 1914); assay type: functional, Streptococcus pyogenes M1 GAS;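 further: secreted streptokinase activity via plasminogen activation per viability signal from cell pellet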
T4 sequence (P10520 whole entry): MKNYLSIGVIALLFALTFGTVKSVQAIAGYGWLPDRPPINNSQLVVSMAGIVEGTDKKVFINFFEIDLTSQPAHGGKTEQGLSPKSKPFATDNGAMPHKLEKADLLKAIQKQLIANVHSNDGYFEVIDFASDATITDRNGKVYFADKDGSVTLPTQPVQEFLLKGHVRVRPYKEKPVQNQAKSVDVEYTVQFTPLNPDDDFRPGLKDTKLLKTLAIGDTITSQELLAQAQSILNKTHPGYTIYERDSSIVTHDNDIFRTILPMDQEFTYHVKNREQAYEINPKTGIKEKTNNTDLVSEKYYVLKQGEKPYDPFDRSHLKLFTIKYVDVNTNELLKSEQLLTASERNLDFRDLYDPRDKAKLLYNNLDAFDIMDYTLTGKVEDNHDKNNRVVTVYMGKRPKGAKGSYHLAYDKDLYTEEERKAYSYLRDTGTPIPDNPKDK

Streptococcus = assay: Group A Streptococcus viability loss, dose response, counter-screen for streptokinase expression inhibitor project, luminescence, BacTiterGlo (AID 1915); assay type: functional, organism-based;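 further: potency for reduction of bacterial viability or growth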
CHO-K1 = assay: (§1) Counterscreen for antagonists of the orexin 1 receptor (OX1R; HCRTR1): Homogeneous time resolved fluorescence (HTRF)-based cell-based dose response assay to identify antagonists of the parental CHO-K1 cell line. [Related pubchem assays (depositor defined):AID434989, AID435008, AID463079, AID485270, AID492963, AID492964, AID492965, AID493232, AID504699, AID504701]; assay type: functional; conditions: Cricetulus griseus
[8] = as §1, with “Fluorescence-based” for “Homogeneous time resolved fluorescence (HTRF)-based”, “cell-based high throughput” for “cell-based”, “CHO” for “CHO-K1”; assay type: functional
[9] = target: T5, Orexin/Hypocretin receptor type 1 (Homo sapiens, UniProt O43613); assay: Homogeneous Time Resolved Fluorescence (HTRF)-based cell-based high throughput dose response assay for antagonists of the orexin 1 receptor (OX1R; HCRTR1). [Related pubchem assays (depositor defined):AID434989, AID435008, AID463079, AID485270, AID492963, AID492964, AID492965, AID493232, AID504717, AID504718]; assay type: functional
T5 sequence (O43613 whole entry): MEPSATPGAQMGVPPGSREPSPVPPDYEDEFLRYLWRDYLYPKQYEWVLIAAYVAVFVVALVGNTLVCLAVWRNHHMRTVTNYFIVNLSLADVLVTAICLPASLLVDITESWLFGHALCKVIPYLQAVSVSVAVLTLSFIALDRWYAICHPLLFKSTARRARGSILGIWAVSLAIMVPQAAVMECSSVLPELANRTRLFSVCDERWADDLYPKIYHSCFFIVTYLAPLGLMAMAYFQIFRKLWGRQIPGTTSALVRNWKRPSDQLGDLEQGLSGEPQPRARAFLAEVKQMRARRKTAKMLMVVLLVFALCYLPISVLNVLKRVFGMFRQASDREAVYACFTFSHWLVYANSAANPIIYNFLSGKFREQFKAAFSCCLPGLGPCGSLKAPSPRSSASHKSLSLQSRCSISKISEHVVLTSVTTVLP

[10] = target: T5, Orexin/Hypocretin receptor type 1; assay: Fluorescence-based cell-based high throughput dose response assay for antagonists of the orexin 1 receptor (OX1R; HCRTR1). [Related pubchem assays (depositor defined):AID434989, AID435008, AID463079, AID485270, AID492963, AID492964, AID492965, AID493232, AID504717, AID504718]; assay type: functional
Orexin receptor type 2 [11] = target: T6, Orexin receptor type 2 (Homo sapiens, UniProt O43614); assay: Counterscreen assay for antagonists of the orexin 1 receptor (OX1R; HCRTR1): Fluorescence-based cell-based dose response assay for antagonists of the orexin 2 receptor (OX2R; HCRTR2), run by assay provider.; assay type: functional
T6 sequence (O43614 whole entry): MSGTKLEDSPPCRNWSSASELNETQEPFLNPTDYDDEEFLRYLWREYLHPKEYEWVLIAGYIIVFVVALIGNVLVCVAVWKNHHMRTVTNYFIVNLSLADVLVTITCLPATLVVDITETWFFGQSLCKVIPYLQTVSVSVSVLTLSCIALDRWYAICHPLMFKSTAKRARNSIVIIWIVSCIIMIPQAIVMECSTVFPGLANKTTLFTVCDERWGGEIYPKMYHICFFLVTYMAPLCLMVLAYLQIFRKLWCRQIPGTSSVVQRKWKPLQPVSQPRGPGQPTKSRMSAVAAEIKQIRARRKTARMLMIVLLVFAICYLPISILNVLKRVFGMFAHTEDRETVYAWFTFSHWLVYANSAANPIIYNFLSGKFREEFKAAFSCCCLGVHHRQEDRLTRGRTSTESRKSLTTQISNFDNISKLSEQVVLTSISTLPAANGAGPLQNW

Orexin receptor type 2 [12] = target: T6, Orexin receptor type 2; assay: Counterscreen assay for antagonists of the orexin 1 receptor (OX1R; HCRTR1): Homogeneous Time Resolved Fluorescence (HTRF)-based cell-based dose response assay for antagonists of the orexin 2 receptor (OX2R; HCRTR2), run by assay provider.; assay type: functional

Melanin-concentrating hormone receptor 1, sequence (Q99705 whole entry): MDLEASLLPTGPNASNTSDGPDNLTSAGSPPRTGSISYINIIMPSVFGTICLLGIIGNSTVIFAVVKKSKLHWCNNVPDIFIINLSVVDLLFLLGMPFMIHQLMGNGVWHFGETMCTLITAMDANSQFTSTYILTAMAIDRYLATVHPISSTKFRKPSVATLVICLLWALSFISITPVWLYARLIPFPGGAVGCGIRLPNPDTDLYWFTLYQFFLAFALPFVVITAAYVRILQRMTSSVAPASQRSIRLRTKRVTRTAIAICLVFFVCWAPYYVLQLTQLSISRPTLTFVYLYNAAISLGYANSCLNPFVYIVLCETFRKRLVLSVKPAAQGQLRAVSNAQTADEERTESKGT
Benomyl/methotrexate resistance protein, sequence (P28873 whole entry): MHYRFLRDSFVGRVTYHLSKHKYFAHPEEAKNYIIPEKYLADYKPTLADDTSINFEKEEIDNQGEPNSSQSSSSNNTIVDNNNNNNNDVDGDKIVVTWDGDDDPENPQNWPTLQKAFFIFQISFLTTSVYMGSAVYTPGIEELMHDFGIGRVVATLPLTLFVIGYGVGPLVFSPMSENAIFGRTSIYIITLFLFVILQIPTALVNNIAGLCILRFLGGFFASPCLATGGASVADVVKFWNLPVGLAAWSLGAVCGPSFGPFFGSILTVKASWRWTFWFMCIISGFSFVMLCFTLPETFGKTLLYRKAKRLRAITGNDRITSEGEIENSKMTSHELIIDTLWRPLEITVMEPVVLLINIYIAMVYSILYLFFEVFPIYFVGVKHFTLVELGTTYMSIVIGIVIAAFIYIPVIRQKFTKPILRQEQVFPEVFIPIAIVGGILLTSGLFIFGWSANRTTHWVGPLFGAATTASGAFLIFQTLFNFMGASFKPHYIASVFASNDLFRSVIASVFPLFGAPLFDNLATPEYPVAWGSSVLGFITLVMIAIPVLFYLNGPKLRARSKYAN

CCOC(=O)C(C(=O)OCC)c1c(Cl)cnn(Cc2cccc3ccccc23)c1=O
IC50 [1]: 3.77 µM (active) | IC50 [2]: 4.03 µM (active)

COc1ccccc1-c1sc2ccccc2c1-c1ccc(OCCN2CCCCC2)cc1
EC50 [3]: 18.9 µM (active)

O=C(N/N=C\C=C\c1ccc(Br)cc1)c1ccc2c(c1)OCO2
IC50 [4]: 7.43 µM (active) | IC50 [5]: 11.6 µM (active) | IC50 [6]: 23.5 µM (inactive)

Cc1cnc(NC(=O)c2cc3c(C)nn(-c4ccccc4)c3s2)s1
EC50 [7]: 2.5 µM (active) | EC50 (Streptokinase A): > 150 µM (not active) | EC50 (Streptococcus): > 150 µM (not active) | IC50 (CHO-K1): > 66.2 µM (inactive) | IC50 [8]: > 49.7 µM (inactive) | IC50 [9]: 2.21 µM (active) | IC50 [10]: 2.37 µM (active) | IC50 (Orexin receptor type 2 [11]): 60.4 µM (inactive) | IC50 (Orexin receptor type 2 [12]): > 50 µM (inactive)

COc1ccc(Oc2c(Cl)cnn(C(C)c3ccccc3C)c2=O)cc1 (configuration not stated)
IC50 [1]: 8.01 µM (active) | IC50 [2]: 9.16 µM (active)
